Patent publication US8637664B2, “Alkyl 4- [4- (5-oxo-2,3,5, 11a-tetrahydo-5H-pyrrolo [2, 1-c] [1,4] benzodiazepine-8-yloxy)-butyrylamino]-1H-pyrrole-2-carboxylate derivatives and related compounds for the treatment of a proliferative disease” (Spirogen SARL, priority 2005, dated 2014)

Key:
calf thymus DNA (CT-DNA) = assay: DNA thermal denaturation (melting) studies; assay type: binding; conditions: CT-DNA 100 μM DNAp, compound 20 μM, 37 °C; for Induced ΔTm after incubation 0 hours: pH 7.00, 0 hours; for Induced ΔTm after incubation 4 hours: pH 7.00, 4 hours; for Induced ΔTm after incubation 18 hours: pH 7.00, 18 hours
Summary of the method: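 CT-DNA at 100 μM (50 μM bp) with test compound at 20 μM in pH 7.00 10 mM sodium phosphate/1 mM EDTA, preincubated at 37.0 °C for 0–18 h (up to 72 h for some compounds). Absorbance at 260 nm, heated 1 °C/min over 45–98 °C; Tm from melting-profile midpoint, ΔTm versus free DNA, MeOH-corrected, mean±SD of ≥3.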

[1] = system: K562 human chronic myeloid leukaemia cells; assay: In vitro cytotoxicity, MTT assay; assay type: cell-based; conditions: K562, 1 hour drug exposure, MTT after 4 days
Description: K562 human chronic myeloid leukaemia cells were maintained in RPM1 1640 medium supplemented with 10% fetal calf serum and 2 mM glutamine at 37° C. in a humidified atmosphere containing 5% CO2 and were incubated with a specified dose of drug for 1 hour at 37° C. in the dark. The incubation was terminated by centrifugation (5 min, 300 g) and the cells were washed once with drug-free medium. Following the appropriate drug treatment, the cells were transferred to 96-well microtiter plates (10^4 cells per well, 8 wells per sample). Plates were then kept in the dark at 37° C. in a humidified atmosphere containing 5% CO2. The assay is based on the ability of viable cells to reduce a yellow soluble tetrazolium salt, 3-(4,5-dimethylthiazol-2-yl)-2,5-diphenyl-2H-tetrazolium bromide (MTT, Aldrich-Sigma), to an insoluble purple formazan precipitate. Following incubation of the plates for 4 days (to allow control cells to increase in number by approximately 10 fold), 20 μL of MTT solution (5 mg/mL in phosphate-buffered saline) was added to each well and the plates further incubated for 5 hours. The plates were then centrifuged for 5 minutes at 300 g and the bulk of the medium pipetted from the cell pellet leaving 10-20 μL per well. DMSO (200 μL) was added to each well and the samples agitated to ensure complete mixing. The optical density was then read at a wavelength of 550 nm on a Titertek Multiscan ELISA plate reader, and a dose-response curve was constructed.

Row | SMILES | Induced ΔTm after incubation 0 hours (calf thymus DNA (CT-DNA)) [°C] | Induced ΔTm after incubation 4 hours (calf thymus DNA (CT-DNA)) [°C] | Induced ΔTm after incubation 18 hours (calf thymus DNA (CT-DNA)) [°C] | IC50 [1] [nM]
1 | COC(=O)c1cc(NC(=O)c2cc(NC(=O)CCCOc3cc4c(cc3OC)C(=O)N3CCC[C@H]3C=N4)cn2C)cn1C [Compound 23, (11aS) Methyl 4-({4-[4-(7-Methoxy-6-oxo-2,3,5,11a-tetrahydro-5H-pyrrolo[2,1-c][1,4]benzodiazepine-8-yloxy)-butyrylamino]-1-methyl-1H-pyrrole-2-carbonyl}-amino)-1-methyl-1H-pyrrole-2-carboxylate] | 13.9 | 15.0 | 15.6 | 3.6
2 | COC(=O)c1cc(NC(=O)c2cc(NC(=O)c3cc(NC(=O)CCOc4cc5c(cc4OC)C(=O)N4CCC[C@H]4C=N5)cn3C)cn2C)cn1C [Compound C11, (11aS) Methyl 4-{[4-({4-[4-(7-Methoxy-5-oxo-2,3,5,11a-tetrahydro-5H-pyrrolo[2,1-c][1,4]benzodiazepine-8-yloxy)-propionylamino]-1-methyl-1H-pyrrole-2-carbonyl]-amino)-1-methyl-1H-pyrrole-2-carbonyl]-amino}-1-methyl-1H-pyrrole-2-carboxylate] | 7.9 | 8.4 | 9.6 | 346
